These results are taken from PubChem BioAssay (NCI).

Holding throughout (assay): inhibition of tumour cell growth, NCI panel, 48 h
The subject of experiment [1] is SK-MEL-28 melanoma.
Experiment [2] deals with HT29 colon.
In experiment [3] the test system is HCT-116 colon.
For experiment [4], the system named is SNB-75 CNS.
Experiment [5] deals with U251 CNS.
In experiment [6] the test system is NCI-H226 lung.
The test system of experiment [7] is UO-31 renal.
Experiment [8] relates to KM12 colon.
For experiment [9], the system named is HOP-92 NSCLC.

Values joined by “and” are separate entries in the source; they are usually repeats but may differ in a detail not shown here. Equal entries are not always repeated.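 Interpolation was linear, between the two tested concentrations surrounding the appropriate level; five concentrations were tested over 48 hours in 96-well plates. The concentration for 50% growth inhibition is given as GI50. TGI denotes the concentration required for complete inhibition of growth.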 A value given as a limit tells only on which side of the number the result lay.

For `C[C@H]1CC[P+](Cc2ccccc2)(c2ccccc2)C1` (stereo partly drawn), the TGI in experiment [1], in experiment [2], in experiment [3], in [4], in experiment [5] and in experiment [6] was above 100 µM each time. In addition, the TGI in experiment [7] and in [8] was above 100 µM in each case.

`COc1ccccc1NC(=O)C1=C(C)NC(C)=C(C(=O)Nc2ccccc2OC)C1c1ccccc1[N+](=O)[O-]`: the TGI in [1] was 33.9 µM; in experiment [2], 37 µM; in experiment [3] it was above 100 µM; in experiment [4], above 100 µM; in [9], 59.5 µM; in experiment [5], 29.7 µM. Moreover, the TGI came out at 35.2 µM in experiment [6], 37.6 µM in [7] and 35 µM in experiment [8].

For the compound `Cc1ccc(NC(=O)CCCC(=O)CC(=O)c2ccc(Br)cc2)cc1`, the TGI in experiment [1], in experiment [2], in [3], in experiment [4], in [9] and in experiment [5] was above 100 µM throughout. Also, the TGI in experiment [6], in experiment [7] and in experiment [8] was above 100 µM each time.

Turning to `O=C(c1ccc(O)cc1O)C1C(c2ccc(O)cc2)OC(c2ccc(O)cc2)C1C(=O)c1ccc(O)cc1O` (stereo not drawn), the TGI in experiment [1] is 36 µM; in experiment [2], above 100 µM; in experiment [4], 42.1 µM; in experiment [5] it was 32.9 µM; in experiment [6], 40.4 µM; in [7] it was 76.9 µM. In experiment [8], this compound showed a TGI above 100 µM.

Take `Cc1ccc(NC(=O)CCc2nc(=S)[nH][nH]2)cc1`: the TGI in [1], in experiment [2], in experiment [3], in experiment [4], in experiment [9] and in experiment [5] was above 100 µM in each case. In addition, the TGI in experiment [6], in experiment [7] and in [8] was above 100 µM throughout.

For the compound `Nc1nncc2c1c(Br)cn2C1OC(CO)C(O)C1O` (stereo not drawn), the TGI is above 100 µM in experiment [1]; above 100 µM in [2]; above 100 µM in experiment [3]; above 100 µM in experiment [4]; 62.3 µM in experiment [9]; above 100 µM in experiment [5]. The TGI in [6], in experiment [7] and in [8] was above 100 µM in each case.

For `CC(=O)C1CCN(c2ccccc2)C1` (stereo not drawn), the TGI in experiment [1], in experiment [2], in [3], in experiment [4], in experiment [9] and in [5] was above 100 µM in each case. The TGI in experiment [6], in experiment [7] and in experiment [8] was above 100 µM each time.

For the compound `COc1cc(C2c3cc4c(cc3[C@@H](NCCN(C)C)C3COC(=O)[C@H]23)OCO4)cc(OC)c1O` (stereo partly drawn), the TGI was 2.14 µM and 3.38 µM in experiment [1]; 5 µM in experiment [2]; 2.18 µM and 3.79 µM in experiment [3]; 0.674 µM in [4]; 0.0928 µM and 0.335 µM in experiment [9]; 0.365 µM and 1.33 µM in experiment [5]. In addition, the TGI is 0.0481 µM and 0.152 µM in [6]; 0.633 µM and 1.32 µM in [7]; 2.22 µM and 2.63 µM in experiment [8]. The GI50 in experiment [2] was 1.36 µM; in experiment [3], 0.272 µM and 0.715 µM.

Take `O=C1c2ccccc2C(=O)c2cc3c(cc21)CS(=O)C3`: the TGI in experiment [1], in experiment [2], in [4], in experiment [9], in experiment [5] and in [7] was above 100 µM each time. The same compound returned a TGI in experiment [8] above 100 µM.

As for `CC(C)(C)c1cc(CCC(=O)Nc2ccc(Cl)cc2)[nH]c(=S)n1`, the TGI in experiment [1], in experiment [2], in [4], in [5], in experiment [6] and in experiment [7] was above 100 µM each time. This compound also gave a TGI in experiment [8] above 100 µM.

Take `CCCNC(=O)Nc1c([N+](=O)[O-])cc(C(F)(F)F)cc1[N+](=O)[O-]`: the TGI in experiment [1], in [2], in experiment [3], in experiment [4], in experiment [9] and in experiment [5] was above 100 µM throughout. The TGI in experiment [6], in experiment [7] and in experiment [8] was above 100 µM each time.

For the compound `O=C(O/N=C1\CCCC\C1=C/c1ccccc1)c1ccc([N+](=O)[O-])cc1`, the TGI in experiment [1], in [2], in [3], in experiment [4], in experiment [9] and in experiment [5] was above 100 µM in each case. Moreover, the TGI in experiment [6] and in [7] was above 100 µM throughout.

With `COC1C2C[C@@H](O)CCC2C(C(=O)OCCl)C[C@H]1O` (stereo partly drawn), the TGI in [1], in [3], in experiment [4], in experiment [5], in [6] and in experiment [7] was above 100 µM throughout. In experiment [8], this compound returned a TGI above 100 µM.

For the compound `COC1=C(N)C(=O)c2nc(-c3nc(C(=O)O)c(C)c(-c4ccc(OC)c(OC)c4O)c3N)ccc2C1=O`, the TGI in experiment [2] was 0.0337 µM and 0.0342 µM and 0.0663 µM; in experiment [9] it was 0.0442 µM and 0.428 µM; in experiment [7] it was 0.02 µM and 0.0176 µM. Besides, the GI50 in experiment [3] is 0.0139 µM and 0.00357 µM; in experiment [9] it was 0.00666 µM and < 0.0284 µM; in experiment [6] it was 0.00126 µM and 0.00319 µM; in experiment [7], below 0.01 µM.

Consider `O=C1C(c2ccccc2)=C(c2ccccc2)C(c2ccc(Cc3ccc(C4=C(c5ccccc5)C(=O)C(c5ccccc5)=C4c4ccccc4)cc3)cc2)=C1c1ccccc1`, for which the TGI in experiment [2], in [3], in [4], in experiment [9], in [5] and in [6] was above 100 µM throughout. The TGI in [7] and in [8] was above 100 µM throughout.

In the case of `O=S1(=O)N2CN3CN(C2)CN1C3`, the GI50 is 40.6 µM in experiment [1] and 26.6 µM in experiment [3]. For the same compound, the TGI was 225 µM in experiment [1]; 90.6 µM in experiment [2]; 44.4 µM and 76.6 µM in experiment [3]; 69.2 µM in experiment [4]; 188 µM in [6]; 410 µM in experiment [7]. This compound also came in with a TGI in experiment [8] of 306 µM.
